Source: patent publication US4465676A, “16α Halogen substituted 3,17β-dihydroxy steroidal estrogens” (priority 1980, dated 1984)

Assays:
[1] = tested on: testosterone-estradiol binding globulin; assay: Binding to testosterone-estradiol binding globulin of human plasma
From the text: This protein contaminates most human tissue preparations, complicating the detection of sex steroid receptors.

[2] = Stability of the radiolabelled compound on storage; assay type: physicochemical
Method: In several experiments the yield of ^125 I-labeled estradiol ranged from 25 to 65 percent of the incubated ^125 I. The purified radioactive iodinated compound was stored at 0° to 4° C. in a benzene-methanol mixture (95:5).

[3] = tested on: rat uterine cytosol (8S and 4S forms); assay: Glycerol gradient sedimentation of labelled rat uterine cytosol; assay type: binding; conditions: glycerol gradients, with and without 0.4M KCl; DES 7×10^-7 M
Method: The analysis was performed with glycerol rather than the usual sucrose because a more pronounced 8S peak was obtained in the glycerol gradients with both ^3 H- and ^125 I-labeled estradiol. Rat uterine cytosol was prepared as described in Example 4. […] Separate tubes also contained 0.4M KCl. At the end of the incubation, free steroid was removed by adding the incubation mixture to a tube containing a 5-mg pellet of dextran-coated charcoal. After shaking for 5 to 10 minutes at 0° C., the charcoal was removed by centrifugation. […] Fractions of four drops were collected from the bottom of the tube. Control tubes containing cytosol mixed with ^14 C-labeled bovine serum albumin (BSA) as a marker were also analyzed. The sedimintation pattern is illustrated in FIG. 2. The low-salt 8S form (FIG. 2, Curve A) is totally transformed into the 4S form by 0.4M KCl (FIG. 2, Curve B).

[4] = molecular target: T1, calf uterine estrogen receptor (Bos taurus, UniProt P49884); assay: Saturation and Scatchard analysis of the estrogen receptor from calf uterus; assay type: binding; conditions: calf uterine cytosol
T1 construct: Fresh calf uteri obtained from a slaughterhouse; from tissue; host or cells: calf uterus, 150,000 x g cytosol from lyophilized powder
T1 sequence (P49884 1-596): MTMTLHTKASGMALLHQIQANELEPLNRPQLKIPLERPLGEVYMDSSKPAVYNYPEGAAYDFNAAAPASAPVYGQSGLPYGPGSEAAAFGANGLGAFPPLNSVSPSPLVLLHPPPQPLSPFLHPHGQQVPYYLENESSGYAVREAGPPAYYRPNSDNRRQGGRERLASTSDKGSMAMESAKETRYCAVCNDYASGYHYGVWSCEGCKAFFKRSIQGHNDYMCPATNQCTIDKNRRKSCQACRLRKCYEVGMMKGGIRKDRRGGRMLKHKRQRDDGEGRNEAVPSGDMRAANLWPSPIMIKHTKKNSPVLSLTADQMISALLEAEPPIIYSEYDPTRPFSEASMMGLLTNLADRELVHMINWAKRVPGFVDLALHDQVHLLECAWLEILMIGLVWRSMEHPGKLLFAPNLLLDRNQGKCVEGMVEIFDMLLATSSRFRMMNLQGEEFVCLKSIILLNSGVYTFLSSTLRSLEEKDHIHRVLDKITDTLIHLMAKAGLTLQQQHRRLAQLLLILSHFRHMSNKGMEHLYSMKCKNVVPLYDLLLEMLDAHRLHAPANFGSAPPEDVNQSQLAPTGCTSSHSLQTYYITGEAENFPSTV
Method: Fresh calf uteri obtained from a slaughterhouse were brought to the laboratory on ice, immediately trimmed of fat, and cut into small pieces; the pieces were frozen in liquid nitrogen and pulverized. The pulverized frozen tissue was lyophilized, and the desiccated powder was stored under vacuum in sealed vials at -80° C. The uterine powders were usually used within 1 month of pulverization. When needed, the powders were suspended in 0.1M Tris-HCl, pH 7.4/2.5 mM EDTA/5 mM dithiotreithol (TED buffer) at 2.5 mg/ml and homogenized at 0° C. in a Polytron homogenizer with two or three pulses at 15 seconds each. The homogenate was then centrifuged at 150,000×g for 60 minutes and the resulting supernatant (cytosol), containing approximately 1 mg of protein per ml, was used for binding studies on the estrogen receptor.
After the solvent was removed under a stream of N2, 250 μl of cytosol was added and the samples were incubated at 0°-2° C. overnight. The following morning, 250 μl of a 0.5% suspension of dextran-coated charcoal in TED buffer was added to the tubes which then were mixed and centrifuged at 5000×g for 10 minutes. The supernatant was assayed to determine bound radioactivity.
A saturation analysis of the estrogen receptor from calf uterus was conducted. […] Nonspecific binding, specific binding and total binding were determined in parallel incubations containing 0.7 μM DES.
A Scatchard analysis of the estrogen receptor from calf uterus was also conducted.

[5] = molecular target: T2, estrogen receptor (calf uterine cytosol) (Bos taurus, UniProt P49884); assay: Competition for the estrogen receptor in calf uterine cytosol; assay type: binding; conditions: 125I-E2 0.22 nM, 3H-E2 0.74 nM
T2 construct: Fresh calf uteri obtained from a slaughterhouse; from tissue; host or cells: calf uterus, 150,000 x g cytosol from lyophilized powder
T2 sequence (P49884 1-596): T1 sequence (P49884 1-596)
Method: Several compounds, at the two indicated concentrations, were allowed to compete with both labeled steroids for sites in calf uterine cytosol. Incubations were overnight at 4° C., and bound and free steroids were separated with dextran-coated charcoal.

[6] = tested on: antisera against bovine serum albumin complexes with E2-17-hemisuccinate, E2-6-carboxymethyloxime and E2-3-carboxymethyl ether; assay: Radioimmunoassay with antisteroid antisera; assay type: binding, rabbits; conditions: three antisera, various dilutions
Method: Antisteroid antisera were produced in rabbits immunized with steroid-bovineserum albumin conjugates.
Varying amounts of E2 dissolved in methanol were added to test tubes and evaporated to dryness. The residues were dissolved in 100 μl of antiserum that had been diluted in 0.1M phosphate, pH 7.0/0.015M sodium azide/0.15M NaCl/0.1% gelatin (PBS buffer). […] Upon completion of the incubation, 100 μl of 0.5% gelatin in PBS buffer was added, followed by 1 ml of PBS buffer containing 2.5 mg of dextran-coated charcoal. The mixture was agitated in a vortex mixer and, after 10 minutes at 4° C., it was centrifuged at 5000×g for 10 minutes at 4° C. Aliquots (0.9 ml) were assayed for radioactivity.
The data also indicate that very sensitive radioimmunoassays could be developed with all three antisera.

C[C@]12CC[C@@H]3c4ccc(O)cc4CC[C@H]3[C@@H]1C[C@@H]([125I])[C@@H]2O [^125 I-E2, 16α-[^125 I]iodoestra-1,3,5(10)-triene-3,17β-diol]
binding to testosterone-estradiol binding globulin [1]: does not bind | decomposition on storage ([2]; weeks of storage at 0° to 4° C. in benzene-methanol (95:5)): no signs of decomposition | decomposition on storage ([2]; weeks of storage of 4° C.): little sign of decomposition | displacement by DES of radioactivity bound to the 8S and 4S forms [3]: almost completely displaced by DES | radioactivity bound (binding capacities) [4]: 122,000 cpm | % B0 (initial specific binding of tracer alone) [5]: 40% | binding of tracer to antisera [6]: bound to all three antisera
